IC50 data for 4 compounds are collected here from patent US8415469B2, “Compounds and methods for kinase modulation, and indications therefor” (Plexxikon Inc., priority 2005, dated 2013).

What is called pIC50 is −log10 of the IC50, conventionally taken in molar units.

Assay type in all cases: biochemical
For experiment [1], the target named is T1, p38 (Homo sapiens, UniProt Q16539).
T1 construct: P4292.pET15S P38A M1-S360-X MKK6DD; His6 with thrombin site (N); made in house
In words: AlphaScreen kinase assay, p38. Particulars: read-out: IC50, activity toward kinase p38. Background: Alpha assays give light when donor and acceptor beads are brought close together.
Protocol: AlphaScreen assays were done using compounds dissolved in DMSO to a concentration of 20 mM. The compounds were diluted accordingly to the desired final concentrations in each sample well, using 1:3 serial dilution for a total of 8 concentration points. Plates were prepared such that each kinase reaction is 20 μl in 1× kinase buffer, 5% DMSO and 10 μM ATP. After incubation of the kinase reaction for 1 hour at room temperature, 5 μl of donor beads in stop buffer (50 mM EDTA in 1× kinase buffer) was added, the sample was mixed and incubated for 20 minutes at room temperature before adding 5 μl of acceptor beads in stop buffer. The samples were incubated for 60 minutes at room temperature and the signal per well was read on AlphaQuest reader.

Experiment [2] deals with TrkA (Homo sapiens, UniProt P04629). In words: AlphaScreen kinase assay, TrkA. Particulars: read-out: IC50, activity toward kinase TrkA. The source says: (§1) AlphaScreen assay was used to screen additional kinases. The assay is similarly dependent on the phosphorylation of a peptide substrate. In this assay, an antibody that recognizes phosphorylated substrate is bound to an acceptor bead. The peptide substrate is attached to biotin, which binds to a donor head that contains streptavidin. Thus phosphorylated substrate is bound by antibody and streptavidin, bringing the donor and acceptor heads into close proximity when kinase is not inhibited. The donor produces singlet oxygen which results in emission from the acceptor when they are in close proximity. Conversely, when kinase is inhibited, the donor and acceptor beads are not associated and the emission from the acceptor is reduced.
Chain of TrkA (P04629 33-796): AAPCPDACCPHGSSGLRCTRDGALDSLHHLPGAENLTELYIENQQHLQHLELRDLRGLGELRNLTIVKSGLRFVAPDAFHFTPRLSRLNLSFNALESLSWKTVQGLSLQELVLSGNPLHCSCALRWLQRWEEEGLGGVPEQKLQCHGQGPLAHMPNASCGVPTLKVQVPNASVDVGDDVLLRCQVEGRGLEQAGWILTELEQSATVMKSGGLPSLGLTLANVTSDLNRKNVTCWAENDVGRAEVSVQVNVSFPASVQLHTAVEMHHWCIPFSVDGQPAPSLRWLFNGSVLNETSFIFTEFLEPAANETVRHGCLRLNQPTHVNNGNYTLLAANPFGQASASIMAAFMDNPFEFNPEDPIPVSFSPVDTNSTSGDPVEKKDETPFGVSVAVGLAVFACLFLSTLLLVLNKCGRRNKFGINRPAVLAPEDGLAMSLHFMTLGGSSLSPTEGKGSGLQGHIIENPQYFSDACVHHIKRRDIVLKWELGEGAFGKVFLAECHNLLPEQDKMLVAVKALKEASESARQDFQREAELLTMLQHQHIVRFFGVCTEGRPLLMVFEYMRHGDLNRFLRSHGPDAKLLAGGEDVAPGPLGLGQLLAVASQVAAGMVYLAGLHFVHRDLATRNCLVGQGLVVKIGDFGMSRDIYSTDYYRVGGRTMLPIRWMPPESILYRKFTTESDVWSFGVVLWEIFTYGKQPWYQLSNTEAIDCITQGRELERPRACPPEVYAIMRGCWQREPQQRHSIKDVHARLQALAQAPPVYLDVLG
(§2) AlphaScreen assays were done using compounds dissolved in DMSO to a concentration of 20 mM. The compounds were diluted accordingly to the desired final concentrations in each sample well, using 1:3 serial dilution for a total of 8 concentration points.

The target of experiment [3] is MLK1 (Homo sapiens, UniProt P80192). As to the kind of experiment: AlphaScreen kinase assay, MLK1. Particulars: read-out: IC50, activity toward kinase MLK1.
Chain of MLK1 (P80192 whole entry): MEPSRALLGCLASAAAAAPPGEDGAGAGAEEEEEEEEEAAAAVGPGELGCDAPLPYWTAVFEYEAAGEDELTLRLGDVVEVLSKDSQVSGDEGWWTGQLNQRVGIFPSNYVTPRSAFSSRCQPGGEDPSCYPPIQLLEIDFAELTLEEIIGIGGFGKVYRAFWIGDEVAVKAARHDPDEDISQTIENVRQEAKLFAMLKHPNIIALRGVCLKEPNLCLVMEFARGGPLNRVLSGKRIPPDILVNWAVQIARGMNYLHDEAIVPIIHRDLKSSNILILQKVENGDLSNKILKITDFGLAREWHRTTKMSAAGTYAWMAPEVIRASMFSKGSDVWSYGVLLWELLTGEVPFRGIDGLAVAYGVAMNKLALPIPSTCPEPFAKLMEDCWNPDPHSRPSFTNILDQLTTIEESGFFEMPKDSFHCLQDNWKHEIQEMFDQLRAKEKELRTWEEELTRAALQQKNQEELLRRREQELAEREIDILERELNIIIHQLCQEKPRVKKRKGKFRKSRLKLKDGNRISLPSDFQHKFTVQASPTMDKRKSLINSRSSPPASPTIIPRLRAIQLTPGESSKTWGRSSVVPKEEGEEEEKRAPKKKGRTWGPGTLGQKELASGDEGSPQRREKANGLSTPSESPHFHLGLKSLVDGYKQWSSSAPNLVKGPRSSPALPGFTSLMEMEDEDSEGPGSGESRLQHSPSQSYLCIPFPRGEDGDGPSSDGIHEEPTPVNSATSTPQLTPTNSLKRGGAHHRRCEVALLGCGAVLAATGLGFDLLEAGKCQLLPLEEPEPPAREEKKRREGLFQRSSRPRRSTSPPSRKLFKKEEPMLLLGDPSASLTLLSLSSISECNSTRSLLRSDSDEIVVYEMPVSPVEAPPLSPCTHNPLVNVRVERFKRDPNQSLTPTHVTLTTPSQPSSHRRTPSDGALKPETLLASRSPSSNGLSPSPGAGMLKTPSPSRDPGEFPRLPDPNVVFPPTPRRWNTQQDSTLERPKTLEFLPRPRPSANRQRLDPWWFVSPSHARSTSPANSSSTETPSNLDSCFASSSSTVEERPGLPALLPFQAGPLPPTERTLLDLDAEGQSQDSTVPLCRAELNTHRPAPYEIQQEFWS
From the text: as §1, §2

SMILES strings stand for the structures. pIC50: −log10 of the molar value.

T1 sequence (Q16539 with tags, fused parts or gaps): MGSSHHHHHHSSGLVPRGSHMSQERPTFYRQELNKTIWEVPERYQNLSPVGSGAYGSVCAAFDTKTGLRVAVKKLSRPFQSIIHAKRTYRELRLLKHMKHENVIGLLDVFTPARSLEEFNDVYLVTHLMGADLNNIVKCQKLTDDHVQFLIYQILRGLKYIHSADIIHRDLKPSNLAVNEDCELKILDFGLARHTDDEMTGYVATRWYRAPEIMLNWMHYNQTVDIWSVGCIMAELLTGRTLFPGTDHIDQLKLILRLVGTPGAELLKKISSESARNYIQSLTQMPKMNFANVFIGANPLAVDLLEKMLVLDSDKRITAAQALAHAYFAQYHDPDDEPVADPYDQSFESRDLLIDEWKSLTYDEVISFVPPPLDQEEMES

As for `O=C(O)/C=C/c1cccc(-c2cnc3[nH]cc(C(=O)c4cc(O)ccc4F)c3c2)c1` [Compound P-0010], the pIC50 in experiment [1] is no less than 5.00. In the case of `CCCS(=O)(=O)Nc1ccc(F)c(C(=O)c2c[nH]c3ncc(OC)cc23)c1F` [Compound P-0806, Propane-1-sulfonic acid [2,4-difluoro-3-(5-methoxy-1H-pyrrolo[2,3-b]pyridine-3-carbonyl)-phenyl]-amide], in experiment [2], the pIC50 was no less than 5.00. With `COc1cccc(C(=O)c2c[nH]c3ncc(-c4cccc(NC(C)=O)c4)cc23)c1F` [Compound P-1336, N-{3-[3-(2-Fluoro-3-methoxy-benzoyl)-1H-pyrrolo[2,3-b]pyridin-5-yl]-phenyl}-acetamide], the pIC50 in experiment [3] was no less than 5.00. For the compound `COc1cc(OC)cc(C(=O)c2c[nH]c3ncc(-c4cccc(NS(C)(=O)=O)c4)cc23)c1` [Compound P-1426, N-{3-[3-(3,5-Dimethoxy-benzoyl)-1H-pyrrolo[2,3-b]pyridin-5-yl]-phenyl}-methanesulfonamide], the pIC50 in experiment [3] and in experiment [2] was no less than 5.00 each time.
